± gives the standard deviation of the averaged measurements.
Legend:
Test in all cases: level (log10 ratio to DMSO vehicle control); higher = higher biomarker level / cell amount than vehicle control
Conditions in all cases: in DMSO
[1] = compound: O=C(O)C(F)(F)C(F)(F)C(F)(F)C(F)(F)C(F)(F)C(F)(F)C(F)(F)F [Ammonium perfluorooctanoate]
Method: (§1)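 BioMAP Diversity Plus panel of 12 human primary cell co-culture systems (3C, 4H, LPS, SAg, BT, BF4T, BE3C, CASM3C, HDF3CGF, KF3CT, MyoF, Mphg). Compounds were added 1 h before stimulation and left for 24 h (MyoF 48 h; BT 72 h for soluble read-outs or 6 d for IgG). Biomarkers were read by ELISA, cytotoxicity by SRB, PBMC viability and proliferation by Alamar Blue. Each well value was divided by the mean of 8 DMSO control wells on the same plate and log10 transformed; duplicate blinded samples were tested at 4 concentrations.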

[2] = compound: O=S(=O)(O)CCC(F)(F)C(F)(F)C(F)(F)C(F)(F)F [4:2 Fluorotelomer sulfonic acid]
Method: as §1

[3] = compound: C=CC(=O)OCCC(F)(F)C(F)(F)C(F)(F)C(F)(F)C(F)(F)C(F)(F)C(F)(F)C(F)(F)F [8:2 Fluorotelomer acrylate]
Method: as §1

[4] = compound: O=C(CC(=O)C(F)(F)C(F)(F)C(F)(F)F)c1cccs1 [(Perfluorobutyryl)-2-thenoylmethane]
Method: as §1

[5] = compound: O=C(Cl)C(F)(F)C(F)(F)C(F)(F)C(=O)Cl [Hexafluoroglutaryl chloride]
Method: as §1

[6] = compound: O=P(O)(O)CCC(F)(F)C(F)(F)C(F)(F)C(F)(F)C(F)(F)C(F)(F)F [2-(Perfluorohexyl)ethylphosphonic acid]
Method: as §1

[7] = compound: OCCCCC(F)(F)C(F)(F)C(F)(F)C(F)(F)F [4:4 Fluorotelomer alcohol]
Method: as §1

Test System | level (log10) ([1]; 6700 nM) | level (log10) ([1]; 20000 nM) | level (log10) ([1]; 60000 nM) | level (log10) ([2]; 6700 nM) | level (log10) ([2]; 20000 nM) | level (log10) ([2]; 60000 nM) | level (log10) ([3]; 6700 nM) | level (log10) ([3]; 20000 nM) | level (log10) ([3]; 60000 nM) | level (log10) ([4]; 6700 nM) | level (log10) ([4]; 20000 nM) | level (log10) ([5]; 6700 nM) | level (log10) ([5]; 20000 nM) | level (log10) ([5]; 60000 nM) | level (log10) ([6]; 6700 nM) | level (log10) ([6]; 20000 nM) | level (log10) ([6]; 60000 nM) | level (log10) ([7]; 6700 nM) | level (log10) ([7]; 20000 nM) | level (log10) ([7]; 60000 nM)
BE3C:EGFR | -0.006 ± 0.0028 | 0.001 ± 0.028 | -0.022 ± 0.013 | 0.0115 ± 0.00071 | -0.009 ± 0.0014 | 0.002 ± 0.0085 | -0.0155 ± 0.0021 | -0.015 ± 0.013 | 0.003 ± 0.025 | -0.0725 ± 0.029 | -0.094 ± 0.041 | 0.009 ± 0.0099 | 0.0015 ± 0.0021 | -0.0345 ± 0.0092 | -0.0045 ± 0.0021 | -0.015 ± 0.014 | 0.0005 ± 0.022 | 0.025 ± 0.0085 | 0.022 ± 0.038 | 0.02 ± 0.065
BT:sIL-17F | -0.0405 ± 0.13 | -0.0495 ± 0.094 | -0.0615 ± 0.14 | -0.0025 ± 0.0035 | -0.009 ± 0.13 | 0.077 ± 0.021 | -0.018 ± 0.061 | -0.0565 ± 0.022 | -0.03 ± 0.014 | -0.114 ± 0.061 | -0.45 ± 0.048 | 0.0195 ± 0.09 | -0.095 ± 0.0071 | -0.0065 ± 0.005 | 0.0655 ± 0.084 | 0.008 ± 0.0014 | -0.0175 ± 0.069 | -0.0645 ± 0.0092 | -0.107 ± 0.015 | -0.161 ± 0.15
BT:PBMC Cytotoxicity | -0.0115 ± 0.047 | -0.009 ± 0.033 | 0.0565 ± 0.015 | 0.0075 ± 0.023 | 0 ± 0.0014 | 0.0435 ± 0.03 | 0.011 ± 0.018 | -0.0035 ± 0.035 | -0.021 ± 0.079 | 0.0005 ± 0.025 | -0.0515 ± 0.037 | -0.0035 ± 0.039 | -0.019 ± 0.04 | -0.022 ± 0.016 | 0.0025 ± 0.053 | 0.0325 ± 0.021 | 0.07 ± 0.047 | -0.0265 ± 0.0064 | -0.035 ± 0.0014 | -0.0195 ± 0.064
BF4T:CD106/VCAM-1 | -0.0315 ± 0.021 | -0.0315 ± 0.0064 | -0.032 ± 0.017 | -0.0045 ± 0.0078 | -0.018 ± 0.0028 | 0.0085 ± 0.046 | -0.038 ± 0.0071 | -0.06 ± 0.024 | -0.0235 ± 0.076 | 0.0215 ± 0.052 | -0.236 ± 0.063 | -0.0385 ± 0.039 | -0.022 ± 0.058 | -0.058 ± 0.0085 | -0.0195 ± 0.03 | -0.0165 ± 0.016 | 0.0055 ± 0.047 | -0.0145 ± 0.0064 | -0.0205 ± 0.018 | 0.0135 ± 0.043
BF4T:uPA | 0.014 ± 0.0028 | 0.0175 ± 0.0021 | 0.042 ± 0.013 | -0.013 ± 0.02 | -0.013 ± 0.0085 | 0.0105 ± 0.0078 | -0.0405 ± 0.039 | -0.033 ± 0.025 | -0.023 ± 0.031 | -0.0235 ± 0.00071 | -0.0535 ± 0.047 | -0.02 ± 0.048 | -0.004 ± 0.028 | -0.008 ± 0.013 | -0.0445 ± 0.037 | -0.0475 ± 0.028 | -0.0465 ± 0.013 | -0.0125 ± 0.0078 | -0.015 ± 0.0028 | 0.0105 ± 0.04
BF4T:CD90 | -0.007 ± 0.0028 | -0.015 ± 0.0028 | -0.001 ± 0.0028 | -0.0075 ± 0.0092 | -0.018 ± 0.0042 | -0.011 ± 0.014 | -0.0205 ± 0.018 | -0.019 ± 0.0099 | -0.0035 ± 0.021 | -0.014 ± 0.0085 | -0.062 ± 0.027 | 0.0005 ± 0.013 | -0.002 ± 0.018 | -0.0035 ± 0.0035 | -0.0185 ± 0.023 | -0.0165 ± 0.005 | -0.008 ± 0.031 | -0.009 ± 0.013 | -0.0155 ± 0.012 | 0.0005 ± 0.018

Reference: the supplement of paper PMC10331698
